In patent US5753617A, “Peptide inhibitors of cellular adhesion” (Centocor, Inc., priority 1995, dated 1998) one finds ring closure, yield of all isomers and IC50 data, which are given here for ten molecules.

For series [1] the following is noted: disulfide bond, water.
In another series the target is T1, P-selectin (Homo sapiens, UniProt P16109).
T1 construct: P-selectin is isolated from human platelet lysates; from tissue; host or cells: human platelets (outdated platelet packs from a blood bank)
T1 sequence (P16109 42-830): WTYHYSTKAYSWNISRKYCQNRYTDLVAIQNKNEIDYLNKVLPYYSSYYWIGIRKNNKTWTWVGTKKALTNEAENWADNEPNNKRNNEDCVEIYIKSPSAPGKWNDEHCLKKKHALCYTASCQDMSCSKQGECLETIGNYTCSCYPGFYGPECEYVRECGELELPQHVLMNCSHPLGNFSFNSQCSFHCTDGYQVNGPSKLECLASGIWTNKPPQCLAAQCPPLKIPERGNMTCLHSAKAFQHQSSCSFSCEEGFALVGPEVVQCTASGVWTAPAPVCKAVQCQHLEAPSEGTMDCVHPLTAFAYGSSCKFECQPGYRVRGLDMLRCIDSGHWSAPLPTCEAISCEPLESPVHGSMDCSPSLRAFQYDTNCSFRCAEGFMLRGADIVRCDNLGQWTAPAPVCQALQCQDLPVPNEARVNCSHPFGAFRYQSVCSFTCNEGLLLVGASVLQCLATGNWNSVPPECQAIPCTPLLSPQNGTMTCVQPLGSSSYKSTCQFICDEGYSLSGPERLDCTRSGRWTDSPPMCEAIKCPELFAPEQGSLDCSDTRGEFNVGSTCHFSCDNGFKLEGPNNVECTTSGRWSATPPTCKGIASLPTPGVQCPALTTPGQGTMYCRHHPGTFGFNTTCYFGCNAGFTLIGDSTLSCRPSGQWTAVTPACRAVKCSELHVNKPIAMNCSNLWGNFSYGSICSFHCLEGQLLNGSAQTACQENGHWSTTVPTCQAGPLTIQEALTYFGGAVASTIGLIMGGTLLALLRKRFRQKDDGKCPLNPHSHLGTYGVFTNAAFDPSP
The series is described as follows: Inhibition of human neutrophil adhesion to purified P-selectin immobilized on plastic wells. Type of series: cell-based. To be noted: inhibiting the binding of human neutrophils to P-selectin. The essentials:
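Isolated human neutrophils (2×10^5 per well) in HBSS with Ca2+/Mg2+ and HSA added to wells coated overnight at 4° C with platelet-derived P-selectin (5 micrograms/mL), HSA-blocked; 20 min at 22° C. Nonadherent cells removed by inverted centrifugation at 150 g; adherent cells quantified by myeloperoxidase activity.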

“And” between values parts separate entries of the source, which are not always exact repeats. Equal entries are not always repeated. Where two headings read alike, the source gives them in different places. Where a SMILES comes first, the peptide text is derived from it. Bridges are numbered along the chain shown (N, C = ends). [ ]: non-standard residue; d: D form.

In general, IC50 refers to the concentration that inhibits the measured activity by half. Lower therefore signals higher potency. In series [1] (from CC(C)[C@@H](NC(=O)[C@@H](Cc1c[nH]c2ccccc12)NC(=O)[C@H](NC(=O)[C@@H](Cc1c[nH]c2ccccc12)NC(=O)[C@@H](CS)NC(=O)[C@H](Cc1ccccc1)NC(=O)[C@H](CCCNC(=N)N)NC(=O)[C@@H](CS)NC(=O)[C@@H](CCCCN)NC(=O)[C@H](N)CCCNC(=N)N)[C@H](C)O)C(N)=O, DMSO, 0.315 mM, 25.0 °C, 96.0 h), `CC(C)[C@@H](NC(=O)[C@@H](Cc1c[nH]c2ccccc12)NC(=O)[C@H](NC(=O)[C@@H](Cc1c[nH]c2ccccc12)NC(=O)[C@H]1CSSC[C@@H](NC(=O)[C@@H](CCCCN)NC(=O)[C@H](N)CCCNC(=N)N)C(=O)N[C@@H](CCCNC(=N)N)C(=O)N[C@@H](Cc2ccccc2)C(=O)N1)[C@H](C)O)C(N)=O` [(39)] (H-[dR][dK][dC]RF[dC][dW][dT][dW][dV]-NH2; disulfide 3-6) yielded a ring closure, yield of all isomers of 12.2%. Further, the IC50 at P-selectin stood at 30.6 µM.
As to `CC(C)[C@@H](NC(=O)[C@@H](Cc1c[nH]c2ccccc12)NC(=O)[C@H](NC(=O)[C@@H](Cc1c[nH]c2ccccc12)NC(=O)[C@H]1CSSC[C@@H](NC(=O)[C@@H](CCCCN)NC(=O)[C@H](N)CCCNC(=N)N)C(=O)NCC(=O)N[C@@H](CC(N)=O)C(=O)N1)[C@H](C)O)C(N)=O` [(41)] (H-[dR][dK][dC]GN[dC][dW][dT][dW][dV]-NH2; disulfide 3-6), in series [1] (from CC(C)[C@@H](NC(=O)[C@@H](Cc1c[nH]c2ccccc12)NC(=O)[C@H](NC(=O)[C@@H](Cc1c[nH]c2ccccc12)NC(=O)[C@@H](CS)NC(=O)[C@H](CC(N)=O)NC(=O)CNC(=O)[C@@H](CS)NC(=O)[C@@H](CCCCN)NC(=O)[C@H](N)CCCNC(=N)N)[C@H](C)O)C(N)=O, Cu wire, dilute NH4OH (printed NH2OH), pH 8, 3.2 mM, 20.0 h), the ring closure, yield of all isomers is 6%. The IC50 on P-selectin came to 26.2 µM.
`CC(C)[C@@H](NC(=O)[C@@H](Cc1c[nH]c2ccccc12)NC(=O)[C@H](NC(=O)[C@@H](Cc1c[nH]c2ccccc12)NC(=O)[C@H]1CSSC[C@@H](NC(=O)[C@@H](CCCCN)NC(=O)[C@H](N)CCCNC(=N)N)C(=O)NCC(=O)N[C@@H](CC(=O)O)C(=O)N1)[C@H](C)O)C(N)=O` [(42)] (H-[dR][dK][dC]GD[dC][dW][dT][dW][dV]-NH2; disulfide 3-6): the ring closure, yield of all isomers in series [1] (from CC(C)[C@@H](NC(=O)[C@@H](Cc1c[nH]c2ccccc12)NC(=O)[C@H](NC(=O)[C@@H](Cc1c[nH]c2ccccc12)NC(=O)[C@@H](CS)NC(=O)[C@H](CC(=O)O)NC(=O)CNC(=O)[C@@H](CS)NC(=O)[C@@H](CCCCN)NC(=O)[C@H](N)CCCNC(=N)N)[C@H](C)O)C(N)=O, Cu wire, dilute NH4OH, pH 8, 3.19 mM, 20.0 h) came out at 9.7%. Moreover, the IC50 at P-selectin came out at 944 µM.
The molecule `CC(C)[C@@H](NC(=O)[C@@H](Cc1c[nH]c2ccccc12)NC(=O)[C@H](NC(=O)[C@@H](Cc1c[nH]c2ccccc12)NC(=O)[C@H]1CSSC[C@@H](NC(=O)[C@@H](CCCCN)NC(=O)[C@H](N)CCCNC(=N)N)C(=O)N[C@H](CCCNC(=N)N)C(=O)N[C@@H](Cc2ccccc2)C(=O)N1)[C@H](C)O)C(N)=O` [(45)] (H-[dR][dK][dC][dR]F[dC][dW][dT][dW][dV]-NH2; disulfide 3-6) showed a ring closure, yield of all isomers in series [1] (from CC(C)[C@@H](NC(=O)[C@@H](Cc1c[nH]c2ccccc12)NC(=O)[C@H](NC(=O)[C@@H](Cc1c[nH]c2ccccc12)NC(=O)[C@@H](CS)NC(=O)[C@H](Cc1ccccc1)NC(=O)[C@@H](CCCNC(=N)N)NC(=O)[C@@H](CS)NC(=O)[C@@H](CCCCN)NC(=O)[C@H](N)CCCNC(=N)N)[C@H](C)O)C(N)=O, DMSO, 0.357 mM, 25.0 °C, 48.0 h) of 15.5%. Further, on P-selectin, the IC50 was determined as 263 µM.
In the case of `CC(C)[C@@H](NC(=O)[C@@H](Cc1c[nH]c2ccccc12)NC(=O)[C@H](NC(=O)[C@@H](Cc1c[nH]c2ccccc12)NC(=O)[C@H]1CSSC[C@@H](NC(=O)[C@@H](CCCCN)NC(=O)[C@H](N)CCCNC(=N)N)C(=O)N[C@H](Cc2c[nH]cn2)C(=O)N[C@@H](Cc2ccccc2)C(=O)N1)[C@H](C)O)C(N)=O` [(47)] (H-[dR][dK][dC][dH]F[dC][dW][dT][dW][dV]-NH2; disulfide 3-6), the ring closure, yield of all isomers in series [1] (from CC(C)[C@@H](NC(=O)[C@@H](Cc1c[nH]c2ccccc12)NC(=O)[C@H](NC(=O)[C@@H](Cc1c[nH]c2ccccc12)NC(=O)[C@@H](CS)NC(=O)[C@H](Cc1ccccc1)NC(=O)[C@@H](Cc1c[nH]cn1)NC(=O)[C@@H](CS)NC(=O)[C@@H](CCCCN)NC(=O)[C@H](N)CCCNC(=N)N)[C@H](C)O)C(N)=O, DMSO, 0.698 mM, 24.0 h) was found to be 3.5%. Further, the IC50 at P-selectin was 7 µM.
In series [1] (from CC[C@@H](C)[C@@H](NC(=O)CNC(=O)[C@@H](CS)NC(=O)[C@@H](CCCCN)NC(=O)[C@H](N)CCCNC(=N)N)C(=O)N[C@H](CS)C(=O)N[C@H](Cc1c[nH]c2ccccc12)C(=O)N[C@@H](C(=O)N[C@H](Cc1c[nH]c2ccccc12)C(=O)N[C@@H](C(N)=O)C(C)C)[C@H](C)O, DMSO, 0.341 mM, 25.0 °C, 72.0 h), `CC[C@@H](C)[C@H]1NC(=O)CNC(=O)[C@H](NC(=O)[C@@H](CCCCN)NC(=O)[C@H](N)CCCNC(=N)N)CSSC[C@H](C(=O)N[C@H](Cc2c[nH]c3ccccc23)C(=O)N[C@@H](C(=O)N[C@H](Cc2c[nH]c3ccccc23)C(=O)N[C@@H](C(N)=O)C(C)C)[C@H](C)O)NC1=O` [(52)] (H-[dR][dK][dC]G[dI][dC][dW][dT][dW][dV]-NH2; disulfide 3-6) had a ring closure, yield of all isomers of 16.6%. At P-selectin, this molecule displayed an IC50 of 10.3 µM.
The molecule `CC(C)C[C@H]1NC(=O)CNC(=O)[C@H](NC(=O)[C@@H](CCCCN)NC(=O)[C@H](N)CCCNC(=N)N)CSSC[C@H](C(=O)N[C@H](Cc2c[nH]c3ccccc23)C(=O)N[C@@H](C(=O)N[C@H](Cc2c[nH]c3ccccc23)C(=O)N[C@@H](C(N)=O)C(C)C)[C@H](C)O)NC1=O` [(53)] (H-[dR][dK][dC]G[dL][dC][dW][dT][dW][dV]-NH2; disulfide 3-6) showed a ring closure, yield of all isomers in series [1] (from CC(C)C[C@@H](NC(=O)CNC(=O)[C@@H](CS)NC(=O)[C@@H](CCCCN)NC(=O)[C@H](N)CCCNC(=N)N)C(=O)N[C@H](CS)C(=O)N[C@H](Cc1c[nH]c2ccccc12)C(=O)N[C@@H](C(=O)N[C@H](Cc1c[nH]c2ccccc12)C(=O)N[C@@H](C(N)=O)C(C)C)[C@H](C)O, DMSO, 0.252 mM, 25.0 °C, 48.0 h) of 17.4%. In addition, the IC50 at P-selectin came out at 18.7 µM.
The molecule `CC(C)[C@@H](NC(=O)[C@@H](Cc1c[nH]c2ccccc12)NC(=O)[C@H](NC(=O)[C@@H](Cc1c[nH]c2ccccc12)NC(=O)[C@H]1CSSC[C@@H](NC(=O)[C@@H](CCCCN)NC(=O)[C@H](N)CCCNC(=N)N)C(=O)NCC(=O)N[C@H](CCCCN)C(=O)N1)[C@H](C)O)C(N)=O` [(55)] (H-[dR][dK][dC]G[dK][dC][dW][dT][dW][dV]-NH2; disulfide 3-6) had a ring closure, yield of all isomers in series [1] (from CC(C)[C@@H](NC(=O)[C@@H](Cc1c[nH]c2ccccc12)NC(=O)[C@H](NC(=O)[C@@H](Cc1c[nH]c2ccccc12)NC(=O)[C@@H](CS)NC(=O)[C@@H](CCCCN)NC(=O)CNC(=O)[C@@H](CS)NC(=O)[C@@H](CCCCN)NC(=O)[C@H](N)CCCNC(=N)N)[C@H](C)O)C(N)=O, DMSO, 0.175 mM, 120.0 h) of 10.6%. At P-selectin, this molecule gave an IC50 of 59.7 µM.
Take `CC(C)[C@@H](NC(=O)[C@@H](Cc1c[nH]c2ccccc12)NC(=O)[C@H](NC(=O)[C@@H](Cc1c[nH]c2ccccc12)NC(=O)[C@H]1CSSC[C@@H](NC(=O)[C@@H](CCCCN)NC(=O)[C@H](N)CCCNC(=N)N)C(=O)N2CCC[C@@H]2C(=O)N[C@@H](Cc2ccccc2)C(=O)N1)[C@H](C)O)C(N)=O` [(57)] (H-[dR][dK][dC][dP]F[dC][dW][dT][dW][dV]-NH2; disulfide 3-6): the ring closure, yield of all isomers in series [1] (from CC(C)[C@@H](NC(=O)[C@@H](Cc1c[nH]c2ccccc12)NC(=O)[C@H](NC(=O)[C@@H](Cc1c[nH]c2ccccc12)NC(=O)[C@@H](CS)NC(=O)[C@H](Cc1ccccc1)NC(=O)[C@H]1CCCN1C(=O)[C@@H](CS)NC(=O)[C@@H](CCCCN)NC(=O)[C@H](N)CCCNC(=N)N)[C@H](C)O)C(N)=O, air, Cu wire, NH4OH, 0.42 mM, 25.0 °C, 6.0 h) stood at 8.7%. Further, on P-selectin, the IC50 came to 70.4 µM.
`CC(C)[C@@H](NC(=O)[C@@H](Cc1c[nH]c2ccccc12)NC(=O)[C@H](NC(=O)[C@@H](Cc1c[nH]c2ccccc12)NC(=O)[C@H]1CSSC[C@@H](NC(=O)[C@@H](CCCCN)NC(=O)[C@H](N)CCCNC(=N)N)C(=O)NCC(=O)N[C@@H](CCC(N)=O)C(=O)N1)[C@H](C)O)C(N)=O` [(65)] (H-[dR][dK][dC]GQ[dC][dW][dT][dW][dV]-NH2; disulfide 3-6) registered a ring closure, yield of all isomers in series [1] (from CC(C)[C@@H](NC(=O)[C@@H](Cc1c[nH]c2ccccc12)NC(=O)[C@H](NC(=O)[C@@H](Cc1c[nH]c2ccccc12)NC(=O)[C@@H](CS)NC(=O)[C@H](CCC(N)=O)NC(=O)CNC(=O)[C@@H](CS)NC(=O)[C@@H](CCCCN)NC(=O)[C@H](N)CCCNC(=N)N)[C@H](C)O)C(N)=O, Cu wire, NH4OH (printed NH2OH), 3.16 mM, 20.0 h) of 6.1%. In addition, the IC50 on P-selectin is 46.2 µM and 78.3 µM.
